# Results as given in US20250154134A1, “COMPOUND AS FAK INHIBITOR AND USE THEREOF” (WIGEN BIOMEDICINE TECHNOLOGY (SHANGHAI) CO., LTD., priority 2022, published 2025).
# Key:
# FAK recombinant protein = FAK recombinant protein (Homo sapiens (Human), UniProt Q05397); test: Inhibitory activity against FAK enzyme (HTRF, TK substrate); format: biochemical
# Description: A compound serially diluted with DMSO was mixed with a FAK recombinant protein. After the mixture was left to stand at room temperature for 10 min, a biotin-labeled TK substrate (TK) and ATP were added. […] The inhibition percentage and IC50 of the compound were calculated compared to the DMSO control group.
# PC3 cells [1] = test: PC3 cell proliferation, 3D activity assay (3D culture, 14 days); format: cell-based, human; details: Homo sapiens, PC-3, 336 h, read-out: 3D inhibitory activity against PC3 cells IC50
# [2] = In vivo pharmacokinetic experiment in CD-1 mice; details: mouse, plasma, CD-1 female mice; for Vd: read-out: Vdss
# Description: […] The mice were fasted for at least 12 h before the administration and given food 4 h after the administration, and they were given ad libitum access to water during the experiment.
# On the day of the experiment, animals in the intravenous group were given the corresponding compound by single injection via the tail vein at an administration volume of 10 mL/kg; and animals in the oral group were given the corresponding compound by single intragastric injection at an administration volume of 10 mL/kg. The animals were weighed before administration, and the administration volume was calculated according to the body weight. The sample collection time points were 0.083 h, 0.167 h, 0.5 h, 1 h, 2 h, 4 h, 8 h, and 24 h. About 200 μL of whole blood was collected through the orbital venous plexus at each time point and used to prepare plasma for concentration determination by high-performance liquid chromatography-tandem mass spectrometry (LC-MS/MS). The plasma concentrations were processed using a non-compartmental model of Winnolin pharmacokinetic software, and the pharmacokinetic parameters were calculated using a linear-log trapezoidal method.
# [3] = system: Mouse colon cancer MC38 cells; test: In vivo efficacy, MC38 model in BALB/c mice, single drug and PD-1 combination; details: MC-38 model, single drug, 50 mg/kg, QD (21 days), PO
# Description: Female BALB/c mice (aged 6 weeks, 18-22 g) were provided by Vital River Laboratory Animal Technology Co., Ltd. (China) and used one week after quarantine and acclimation. All animals were kept in a room at 23±2° C. with a relative humidity of 50±5%, artificial lighting was provided from 08:00 to 20:00 every day, and the air was exchanged 13-18 times per hour.
# After being subcultured, the cells were collected when they reached the desired amount. The BALB/c mice were subcutaneously injected with 1×10^6 MC38 cells on the right side to form tumors. […] Administration was then started. Tumor volumes were measured with a caliper on day 3, day 7, day 10, day 14, day 17, and day 21 after the administration.
# The toxicity of the compounds was evaluated according to the body weight and state of the mice.
# [4] = system: Human pancreatic cancer Mia PaCa-2 cells; test: In vivo efficacy, Mia PaCa-2 xenograft in nude mice; design: species or system mouse; details: MiaPaCa-2 model, 25 mg/kg PO QD 21 days
# Description: (§1) The groups were as follows: 1) a solvent control group, 8 mice; and 2) a control compound group and a test compound group, 8 mice each. The mice in the solvent control group were intragastrically administered 0.5% CMC-Na twice a day; the mice in the compound groups were intragastrically administered 0.50% MC-Tween-80 suspension once a day. On Tuesday and Thursday each week, tumor volumes and body weight of the mice were measured, and the nude mice were sacrificed on day 21 after the administration. […] The toxicity of the compounds was evaluated according to the body weight of the mice.
# [5] = system: Human prostate cancer PC3 cells; test: In vivo efficacy, PC3 xenograft in nude mice; design: species or system mouse; details: PC-3 model, 25 mg/kg, QD (21 days), PO
# Description: as §1, with “0.5%” for “0.50%”
# PC3 cells [6] = test: Inhibition of PC3 cell low adsorption (adherent cell count, 4 h); format: cell-based; details: Homo sapiens, PC-3; 4 h treatment; read-out: IC50 against PC3 cell low adsorption
# Description: PC3 cells were seeded at 8000 cells/well. 4 h after the cells were treated with a compound, the number of adherent cells was counted. The inhibition percentage and IC50 of the compound were calculated compared to the DMSO group.
# PC3 cells [7] = test: PC3 cell proliferation, 2D activity assay (Cell Titer-Lumi, 72 h); format: cell-based, human; details: Homo sapiens, PC-3, read-out: 2D inhibitory activity against PC3 cells IC50
# [8] = system: phosphorylation at the FAK 397 site; test: Inhibition of Y397 phosphorylation in PC3 cells (ELISA); format: cell-based; details: Homo sapiens, PC-3, 3 h treatment, read-out: IC50 against Y397 phosphorylation
# Description: PC3 cells were seeded at 8000 cells/well. […] The inhibition percentage and IC50 of the compound were calculated compared to the DMSO group.
# Chain of FAK recombinant protein (Q05397 whole entry): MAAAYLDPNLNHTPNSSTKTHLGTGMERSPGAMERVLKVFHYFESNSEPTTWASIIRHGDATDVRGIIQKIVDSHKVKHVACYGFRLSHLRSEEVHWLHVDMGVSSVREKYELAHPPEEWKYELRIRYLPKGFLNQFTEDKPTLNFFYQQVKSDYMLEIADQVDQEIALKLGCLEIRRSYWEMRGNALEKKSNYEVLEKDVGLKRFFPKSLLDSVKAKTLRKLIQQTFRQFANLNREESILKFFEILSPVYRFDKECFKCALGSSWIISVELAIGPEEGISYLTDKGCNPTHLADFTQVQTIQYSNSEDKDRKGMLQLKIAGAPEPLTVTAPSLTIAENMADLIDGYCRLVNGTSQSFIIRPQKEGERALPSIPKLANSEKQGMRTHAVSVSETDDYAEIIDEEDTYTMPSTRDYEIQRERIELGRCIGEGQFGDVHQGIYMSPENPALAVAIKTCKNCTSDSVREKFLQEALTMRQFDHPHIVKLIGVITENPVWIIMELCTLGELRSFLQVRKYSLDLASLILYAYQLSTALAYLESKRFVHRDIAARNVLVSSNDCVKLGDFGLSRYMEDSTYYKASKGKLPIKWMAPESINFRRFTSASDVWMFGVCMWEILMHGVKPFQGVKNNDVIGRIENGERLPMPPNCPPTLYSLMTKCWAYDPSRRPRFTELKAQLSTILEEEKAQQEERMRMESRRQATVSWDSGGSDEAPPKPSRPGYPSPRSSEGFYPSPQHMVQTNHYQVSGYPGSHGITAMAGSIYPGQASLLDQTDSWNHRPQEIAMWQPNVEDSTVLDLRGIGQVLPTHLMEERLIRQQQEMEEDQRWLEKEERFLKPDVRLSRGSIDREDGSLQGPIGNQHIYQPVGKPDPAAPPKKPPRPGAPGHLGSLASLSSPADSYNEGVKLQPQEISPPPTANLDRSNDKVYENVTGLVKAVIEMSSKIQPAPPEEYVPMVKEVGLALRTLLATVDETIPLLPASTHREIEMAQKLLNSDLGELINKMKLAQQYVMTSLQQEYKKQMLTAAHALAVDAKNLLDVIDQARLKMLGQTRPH
IC50 (FAK recombinant protein) [nM],IC50 (PC3 cells [1]) [nM],"AUC(0-t) ([2]; iv, injection (1 mg/kg)) [ng·h/mL]","clearance ([2]; iv, injection (1 mg/kg)) [mL/min/kg]","half-life ([2]; iv, injection (1 mg/kg)) [h]","Vd ([2]; iv, injection (1 mg/kg)) [L/kg]",IC50 (PC3 cells [6]) [nM],IC50 (PC3 cells [7]) [nM],AUC(0-t) ([2]; oral administration (10 mg/kg)) [ng·h/mL],Cmax ([2]; oral administration (10 mg/kg)) [ng/mL],Tmax ([2]; oral administration (10 mg/kg)) [h],bioavailability ([2]; oral administration (10 mg/kg)) [%],half-life ([2]; oral administration (10 mg/kg)) [h],IC50 [8] [nM],Compound,TGI(%) [3] [%],TGI(%) [4] [%],TGI(%) [5] [%],also measured
< 20,0.32,883,18.9,3.48,5.14,1.09,> 10000,–,–,–,–,–,–,COc1cc(N2CC3(CCN(C)CC3)C2)ccc1Nc1ncc(C(F)(F)F)c(Oc2cccc3c2C(=O)N(C)C32CC2)n1 [Compound 79],69.21,89.35,88.33,"AUC(0-t) ([2]; oral administration, 5 mg/kg): 1760 ng·h/mL; Cmax ([2]; oral administration, 5 mg/kg): 201 ng/mL; Tmax ([2]; oral administration, 5 mg/kg): 4 h; bioavailability ([2]; oral administration, 5 mg/kg): 40%; half-life ([2]; oral administration, 5 mg/kg): 3.06 h"
< 20,0.46,850,19.6,4.69,6.15,1.46,> 2000,6120,522,4,72,5.26,< 0.01,"COc1cc(N2CC3(CCN(C)CC3)C2)c(F)cc1Nc1ncc(C(F)(F)F)c(Oc2cccc3c2C(=O)N(C)C32CC2)n1 [Compound 120, 4′-((2-((5-fluoro-2-methoxy-4-(7-methyl-2,7-diazaspiro[3.5]nonan-2-yl)phenyl)amino)-5-(trifluoromethyl)pyrimidin-4-yl)oxy)-2′-methylspiro[cyclopropane-1,1′-isoindolin]-3′-one]",66.33,–,90.83,–
< 20,0.6,1110,15,3.31,4.15,1.16,> 10000,8910,907,2,80.2,2.2,0.22,"COc1cc(N2CC3(CCN(C)CC3)C2)ccc1Nc1ncc(Cl)c(Oc2cccc3c2C(=O)N(C)C32CC2)n1 [Compound 136, 4′-((5-chloro-2-((2-methoxy-4-(7-methyl-2,7-diazaspiro[3.5]nonan-2-yl)phenyl)amino)pyrimidin-4-yl)oxy)-2′-methylspiro[cyclopropane-1,1′-isoindolin]-3′-one]",32.53,89.46,76.67,–
< 20,1.4,1390,12,3.67,3.71,1.71,> 10000,12400,810,4,89.4,4.19,0.08,"COc1cc(N2CC3(CCN(C)CC3)C2)c(F)cc1Nc1ncc(Cl)c(Oc2cccc3c2C(=O)N(C)C32CC2)n1 [Compound 137, 4′-((5-chloro-2-((5-fluoro-2-methoxy-4-(7-methyl-2,7-diazaspiro[3.5]nonan-2-yl)phenyl)amino)pyrimidin-4-yl)oxy)-2′-methylspiro[cyclopropane-1,1′-isoindolin]-3′-one]",–,87.68,76.39,–
